According to the supplement of paper PMC11208160:

experiment: recombinant barcode read abundance after kanamycin selection (control-corrected) (log10(CPM+1)); higher = more efficient recombination; sequences stand for … in AGTGCAGAGAAAATCGGCCAGTTTTCTCTGCCTGCAGTCCGCATGCCGT…AGATTTATGCAGCGGACTGCCTTTCTCCCAAAGTGATAAACCGGACAGTATCATGGACCGGTTTTCCCGGTAATCCGTATTTGCAAGGTTGGTTTCACT; site = the 11-nt target
In short: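 Reported as log10(CPM+1), each value stands for recombination efficiency. That efficiency is the averaged, control-corrected counts per million of barcodes found at recombinant junctions. Cells from a pooled E. coli library pairing targets with IS621 bridge RNA target-binding loops were plated twice on chloramphenicol/ampicillin LB agar (control) and twice on chloramphenicol/ampicillin/kanamycin with 0.1 mM IPTG.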
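Also: IS621 recombinase and bridge RNA in Escherichia coli cells.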

“TGAGTCCCTTGGGTTCTAACCTGTTGCTT (site TGAGTGCCTAA)” and “TGAGTCCCTTGGGTTCTAACCTGTTGCTT (site TGAGTTCCTAA)” are within 0.2 log units of each other in “recombinant barcode read abundance (log10)” value: 0.0566 for the first, 0.125 for the second.

Compared with “TGAGTGCCTTGGGTTCTAACCTGTTGCTT (site TGAGTACCTAA)”, “TGAGTGCCTTGGGTTCTAACCTGTTGCTT (site TGAGTCCCTAA)” is lower in “recombinant barcode read abundance (log10)” value: 0.682 for the first, 0.116 for the second.

Going from “TGAGTGCCTTGGGTTCTAACCTGTTGCTT (site TGAGTGCCTAA)” to “TGAGTGCCTTGGGTTCTAACCTGTTGCTT (site TGAGTTCCTAA)”, the “recombinant barcode read abundance (log10)” value falls from 1.1 to 0.0622.

Compared with “TGATCCTCTTGGGTTCTAACCTGTTGCTA (site AGGTCCTCTTA)”, “TGATCCTCTTGGGTTCTAACCTGTTGCTA (site TGATCCTCTTA)” is higher in “recombinant barcode read abundance (log10)” value: 0.0555 for the first, 0.513 for the second.

“TGCACTCCTTGGGTTCTAACCTGTTGCCT (site TACAGTCCTAG)” and “TGCACTCCTTGGGTTCTAACCTGTTGCCT (site TGCACTCCTAG)” are within 0.2 log units of each other in “recombinant barcode read abundance (log10)” value: 0.0234 for the first, 0.0424 for the second.

Compared with “TGCATAGCTTGGGTTCTAACCTGTTGCAG (site CTGCAGTCTTG)”, “TGCATAGCTTGGGTTCTAACCTGTTGCAG (site TGCATAGCTCT)” is higher in “recombinant barcode read abundance (log10)” value: 0.00928 for the first, 1.49 for the second.

First: TGCCAGACTTGGGTTCTAACCTGTTGCGT (site AGCCACACTAC)
Second: TGCCAGACTTGGGTTCTAACCTGTTGCGT (site TGCCAGACTAC)
The “recombinant barcode read abundance (log10)” value of the first is lower: 0.0104 for the first, 1.74 for the second.

First: TGCCCCTCTTGGGTTCTAACCTGTTGCCG (site ACAAGGCCTAT)
Second: TGCCCCTCTTGGGTTCTAACCTGTTGCCG (site TGCCCCTCTCG)
The “recombinant barcode read abundance (log10)” value of the first is lower: 0.0768 for the first, 1.46 for the second.

“TGCCCTCCTTGGGTTCTAACCTGTTGCTT (site TCCTCTCCTAA)” and “TGCCCTCCTTGGGTTCTAACCTGTTGCTT (site TGCCCTCCTAA)” are within 0.2 log units of each other in “recombinant barcode read abundance (log10)” value: 0.0862 for the first, 0.0976 for the second.

Compared with “TGCCTCTCTTGGGTTCTAACCTGTTGCTA (site GTTAGACCTAG)”, “TGCCTCTCTTGGGTTCTAACCTGTTGCTA (site TGCCTCTCTTA)” is higher in “recombinant barcode read abundance (log10)” value: 0.0422 for the first, 0.279 for the second.

“TGCGATACTTGGGTTCTAACCTGTTGCTT (site ACACGAGCTCT)” and “TGCGATACTTGGGTTCTAACCTGTTGCTT (site TGCGATACTAA)” are within 0.2 log units of each other in “recombinant barcode read abundance (log10)” value: 0.0799 for the first, 0.223 for the second.

Compared with “TGCGGGTCTTGGGTTCTAACCTGTTGCCT (site GAGCTTGCTTC)”, “TGCGGGTCTTGGGTTCTAACCTGTTGCCT (site TGCGGGTCTAG)” is higher in “recombinant barcode read abundance (log10)” value: 0.273 for the first, 0.702 for the second.

Compared with “TGCGTTCCTTGGGTTCTAACCTGTTGCGT (site TGCGTCACTAC)”, “TGCGTTCCTTGGGTTCTAACCTGTTGCGT (site TGCGTTCCTAC)” is higher in “recombinant barcode read abundance (log10)” value: 0.0759 for the first, 0.88 for the second.

“TGCTAGGCTTGGGTTCTAACCTGTTGCCT (site TGCTAGGCTAG)” and “TGCTAGGCTTGGGTTCTAACCTGTTGCCT (site TGTCAGGCTAG)” are within 0.2 log units of each other in “recombinant barcode read abundance (log10)” value: 0.0609 for the first, 0.0576 for the second.

“TGCTCGGCTTGGGTTCTAACCTGTTGCCT (site AGCTCCGCTAG)” and “TGCTCGGCTTGGGTTCTAACCTGTTGCCT (site TGCTCGGCTAG)” are within 0.2 log units of each other in “recombinant barcode read abundance (log10)” value: 0 for the first, 0.0603 for the second.

“TGCTCTACTTGGGTTCTAACCTGTTGCTT (site TGATCTACTAA)” and “TGCTCTACTTGGGTTCTAACCTGTTGCTT (site TGCTCTACTAA)” are within 0.2 log units of each other in “recombinant barcode read abundance (log10)” value: 0.122 for the first, 0.0286 for the second.

“TGCTCTACTTGGGTTCTAACCTGTTGCTT (site TGGTCTACTAA)” and “TGCTCTACTTGGGTTCTAACCTGTTGCTT (site TGTTCTACTAA)” are within 0.2 log units of each other in “recombinant barcode read abundance (log10)” value: 0.0891 for the first, 0.00634 for the second.

“TGCTGTGCTTGGGTTCTAACCTGTTGCCT (site TGCTGTACTAG)” and “TGCTGTGCTTGGGTTCTAACCTGTTGCCT (site TGCTGTCCTAG)” are within 0.2 log units of each other in “recombinant barcode read abundance (log10)” value: 0.0329 for the first, 0.179 for the second.

“TGCTGTGCTTGGGTTCTAACCTGTTGCCT (site TGCTGTGCTAG)” and “TGCTGTGCTTGGGTTCTAACCTGTTGCCT (site TGCTGTTCTAG)” are within 0.2 log units of each other in “recombinant barcode read abundance (log10)” value: 0.29 for the first, 0.279 for the second.

First: TGGAACACTTGGGTTCTAACCTGTTGCCT (site TGGAACACTAG)
Second: TGGAACACTTGGGTTCTAACCTGTTGCCT (site TGGACCACTAG)
The “recombinant barcode read abundance (log10)” value of the first is higher: 0.98 for the first, 0.0483 for the second.

“TGGAACACTTGGGTTCTAACCTGTTGCCT (site TGGAGCACTAG)” and “TGGAACACTTGGGTTCTAACCTGTTGCCT (site TGGATCACTAG)” are within 0.2 log units of each other in “recombinant barcode read abundance (log10)” value: 0.0596 for the first, 0.119 for the second.

Compared with “TGGACCTCTTGGGTTCTAACCTGTTGCCA (site CTACGAACTCC)”, “TGGACCTCTTGGGTTCTAACCTGTTGCCA (site TGGACCTCTTG)” is lower in “recombinant barcode read abundance (log10)” value: 0.626 for the first, 0.222 for the second.

Going from “TGGACGTCTTGGGTTCTAACCTGTTGCCT (site TGGACGCCTAG)” to “TGGACGTCTTGGGTTCTAACCTGTTGCCT (site TGGACGTCTAG)”, the “recombinant barcode read abundance (log10)” value rises from 0.125 to 0.865.

“TGGACTTCTTGGGTTCTAACCTGTTGCTC (site TGGACTTCTCA)” and “TGGACTTCTTGGGTTCTAACCTGTTGCTC (site TGGACTTCTGA)” are within 0.2 log units of each other in “recombinant barcode read abundance (log10)” value: 0.24 for the first, 0.141 for the second.

“TGGCAGACTTGGGTTCTAACCTGTTGCCT (site TGGCAGACTAG)” and “TGGCAGACTTGGGTTCTAACCTGTTGCCT (site TGGCAGCCTAG)” are within 0.2 log units of each other in “recombinant barcode read abundance (log10)” value: 0.215 for the first, 0.263 for the second.

“TGGCAGACTTGGGTTCTAACCTGTTGCCT (site TGGCAGGCTAG)” and “TGGCAGACTTGGGTTCTAACCTGTTGCCT (site TGGCAGTCTAG)” are within 0.2 log units of each other in “recombinant barcode read abundance (log10)” value: 0.0442 for the first, 0.232 for the second.

“TGGCAGCCTTGGGTTCTAACCTGTTGCCT (site TGGCAGACTAG)” and “TGGCAGCCTTGGGTTCTAACCTGTTGCCT (site TGGCAGCCTAG)” are within 0.2 log units of each other in “recombinant barcode read abundance (log10)” value: 0.0766 for the first, 0.216 for the second.

“TGGCAGCCTTGGGTTCTAACCTGTTGCCT (site TGGCAGGCTAG)” and “TGGCAGCCTTGGGTTCTAACCTGTTGCCT (site TGGCAGTCTAG)” are within 0.2 log units of each other in “recombinant barcode read abundance (log10)” value: 0.231 for the first, 0.0934 for the second.

First: TGGCGTGCTTGGGTTCTAACCTGTTGCCT (site TGGCGTGCTAG)
Second: TGGCGTGCTTGGGTTCTAACCTGTTGCCT (site TGTTGTGCTAG)
The “recombinant barcode read abundance (log10)” value of the first is higher: 0.382 for the first, 0.118 for the second.

Compared with “TGGCTGTCTTGGGTTCTAACCTGTTGCCT (site TGGCTGTCTAG)”, “TGGCTGTCTTGGGTTCTAACCTGTTGCCT (site TGGTTGTCTAG)” is lower in “recombinant barcode read abundance (log10)” value: 1.2 for the first, 0.0561 for the second.

Going from “TGGTACCCTTGGGTTCTAACCTGTTGCTA (site GTTACTACTCG)” to “TGGTACCCTTGGGTTCTAACCTGTTGCTA (site TGGTACCCTTA)”, the “recombinant barcode read abundance (log10)” value rises from 0.0129 to 1.36.

First: TGGTAGTCTTGGGTTCTAACCTGTTGCGT (site AAAGCTACTTA)
Second: TGGTAGTCTTGGGTTCTAACCTGTTGCGT (site TGGTAGTCTAC)
The “recombinant barcode read abundance (log10)” value of the first is lower: 0.0198 for the first, 2.57 for the second.

Going from “TGGTATACTTGGGTTCTAACCTGTTGCCT (site TGGTATACTAG)” to “TGGTATACTTGGGTTCTAACCTGTTGCCT (site TGGTATCCTAG)”, the “recombinant barcode read abundance (log10)” value falls from 0.241 to 0.0279.
